Experimental data taken from patent publication US10104882B2, “Methods and compositions for preventing and treating electrophile-mediated toxicities” (priority 2013, dated 2018).
Entries after “also recorded” stand apart in the source; their conditions may differ. Read-outs that look alike come from different tables or passages of the source.

Columns and labels:
[1] = system: MN9D cells; conditions: cited from earlier work; for protection from acrolein-induced cell loss: pre-incubation
[2] = cited from earlier work; for thiol protection against acrolein-induced thiol loss: pH 9.0; for effect on rate of acrolein-induced sulfhydryl (thiol) loss: physiological conditions (pH 7.4)
[3] = system: Rat striatal synaptosomes; conditions: acrolein 1-1000 μM with cytoprotectant 500 μM; cited from earlier work
[4] = Ionization parameters (pKa, % anion); type: physicochemical; conditions: for relative enolate concentration in solution: pH 7 / neutral conditions; for fraction present as nucleophilic enolate/thiolate anion: physiological pH (7.4)
[5] = Prevention of NAPQI-induced GSH sulfhydryl loss by 1,3-dicarbonyl compounds (in chemico); type: biochemical; conditions: for prevention of NAPQI-induced thiol loss: equimolar concentrations (50 μM), pH 7.4
Text: FIG. 3. […] Numbers in parentheses are respective IC50 values.
FIG. 4. […] Numbers in parentheses are respective IC50 values.
(§1) However, acrolein and other electrophiles used in this research are α,β-unsaturated carbonyls, whereas NAPQI and pBQ are quinone derivatives. […] Although both compounds are relatively acidic (low pKa values), thiol protection is limited since the corresponding adduct reactions involving the enolates of these acids are likely to be reversible. […] 2-ACP was the most protective 1,3-dicarbonyl compound tested in this and other studies^54 and was, therefore, the focus of subsequent research. […] 2-ACP (50 μM) was also effective at protecting thiol loss induced by pBQ, the degradation product of NAPQI (data not shown). […] These electrophiles target nucleophilic sulfhydryl groups that play critical roles in protein function and cellular redox balance.

[6] = Electrophile concentration-dependent loss of GSH sulfhydryl groups (in chemico); type: biochemical; set-up: Log IC50: unit not given here; conditions: for Log IC50: logarithmic value, electrophile concentration that causes 50% loss of the GSH sulfhydryl group
Text: as §1

[7] = system: male C57 BL mice; assay: Mouse model of oral acetaminophen (APAP) overdose hepatotoxicity/lethality; type: in vivo; conditions: for changes in hepatic parameters, compound alone: no APAP
Protocol: FIG. 7A-7B. […] Hepatoprotectants were administered 20 mins before (−20), 20 mins after (+20) or 60 mins after (+60) APAP intoxication.
A separate group received the PEG400 vehicle 20 mins prior to AAP. […] Vehicle control mice (n=10) received sequential injections of PEG400 (i.p. followed by oral). At several times post-AAP administration (2, 6, 24, 48 and 168 hrs), groups of mice were anesthetized in a carbon dioxide chamber and heparinized blood samples were collected. Samples were centrifuged and resulting serum was retained for analyses (see below). Livers were also excised, weighed and tissue samples were collected for histopathological evaluation. Remaining tissue was snap frozen in liquid nitrogen. Hepatotoxicity was determined by quantification of serum alanine aminotransferase (ALT) and aspartate aminotransferase (AST) using colorimetric assays. Serum lactate dehydrogenase (LDH) was also measured as an index of generalized AAP-induced organ toxicity. To evaluate the extent of cellular oxidative stress in liver homogenates, the unsaturated aldehyde by-products of lipid peroxidation, HNE and malondialdhyde (MDA), were determined according to a modification of the Gerard-Monnier et al. method^27. In addition, soluble thiol contents were measured in homogenates according to LoPachin et al.^44.

[8] = system: MN9D cells; conditions: cited from earlier work
[9] = in chemico; cited from earlier work
[10] = Protection against pBQ-induced thiol loss (in chemico); type: biochemical; conditions: 50 μM
Text: as §1

[11] = system: rat liver; assay: Acute ischemia-reperfusion injury of rat liver; type: in vivo, rats
Protocol: FIG. 9. Effect of 2-ACP on liver ischemia. 2-ACP (2.40 mmol/kg) or vehicle was injected i.p. 10 mins before clamping the portal vasculature for 45 mins. At the completion of the Ischemic phase, clamps were removed and the liver was reperfused for 180 mins. Following reperfusion, blood samples were removed for analysis of liver enzymes (ALT, AST) and LDH in plasma. Joining lines indicate statistically significant differences in treatment groups at ***P<0.001 level of significance.
FIG. 10. Effect of 2-ACP on liver reperfusion. 2-ACP (2.40 mmol/kg) or vehicle was injected i.p. 10 mins before restoration of hepatic circulation (reperfusion phase). At the completion of reperfusion, blood samples were removed for analysis of liver enzymes (ALT, AST) and LDH (a general enzyme indicator of tissue injury) in plasma. Joining lines indicate statistically significant differences in treatment groups at ***P<0.001 level of significance.
FIG. 11. […] At the completion of reperfusion, blood samples were removed for analysis of liver enzymes (ALT, AST) and LDH (a general enzyme indicator of tissue injury) in plasma. Joining lines indicate statistically significant differences in treatment groups at ***P<0.001 level of significance.
IR injury is the pathophysiological basis for stroke, myocardial infarction and other organ failure. It is also an underlying cause of allograft rejection following tissue transplantation. To investigate the possibility that 2-ACP and other nucleophilic dicarbonyl derivatives might be useful in preventing IR-mediated organ damage, rats were anesthetized and I/R was induced by clamping the portal vein and hepatic artery using commercially available microclips placed at the porta hepatis. The ischemic state was maintained for 45 mins, which affected approximately 70% of the liver mass. Following removal of the microclamps, hepatic reperfusion was maintained for 180 min. Animals were then sacrificed and plasma samples were taken for subsequent analysis of lactate dehydrogenase (LDH; a general enzyme indicator of cell injury) and liver enzymes (AST and ALT). […] A sham group (laparotomy only) provided baseline data for the appearance of liver enzyme in plasma. […] This level of hepatocyte leakage indicates substantial irreversible cell injury. […] Thus, prior 2-ACP administration is able to diminish the pathophysiological disposition of the ischemic phase. Further, amelioration of the ischemic phase truncates subsequent culmination of hepatocyte injury during reperfusion. To determine whether hepatoprotection was phase-specific and dose-dependent, 2-ACP (1.20-2.40 mmol/kg) was injected i.p. 10 mins prior to the restoration of hepatic circulation (reperfusion phase).

[12] = i.p. 2.40 mmol/kg 10 mins before ischemia (45 min), reperfusion 180 min
[13] = i.p. 10 mins before reperfusion, 2-ACP 1.20-2.40 mmol/kg, equimolar NAC

For `CCOC(=O)CC(=O)OCC` [DEM, diethyl malonate], the “protection from acrolein-induced cell loss” value [1] is listed as “neither DEM nor HD was effective”, the “thiol protection against acrolein-induced thiol loss” value [2] is listed as “significantly increased” and the “effect on rate of acrolein-induced sulfhydryl (thiol) loss” value (“effect on rate … (thiol) loss” below) [2] is listed as “Neither diethyl malonate (DEM; a β-diester) nor 2,5-hexanedione (HD), a γ or 1,4-diketone, affected the rate of sulfhydryl loss”. The “change in acrolein IC50 for synaptosomal DA transport inhibition” value [3] was “neither DEM nor HD significantly affected the acrolein IC50” and the “relative enolate concentration in solution” value [4] was under 0.1%.

In the case of `CC1(C)OC(=O)CC(=O)O1` [MA, Meldrum's acid], the “effect on rate … (thiol) loss” value [2] is listed as “substantially slowed”, the “change in acrolein IC50 for synaptosomal DA transport inhibition” value [3] is listed as “more modest” and the “prevention of NAPQI-induced thiol loss” value [5] is listed as “ineffective”.

In the case of `C=CC=O` [Acrolein, acrolein], the CC50 ([1]; read-out: LC50 (acrolein concentration producing 50% cell lethality), acrolein 50-150 μM) is listed as 96 µM and the “Log IC50” value [6] is listed as 1.72.

In the case of `CC(=O)Nc1ccc(O)cc1` [APAP, N-acetyl-p-aminophenol], the “lethality of oral APAP overdose” value ([7]; oral 500 mg/kg, mice, within 72 hrs) is reported as about 90%.

For `CC(=O)CC(=O)C(F)(F)F` [TFPD, 1,1,1-trifluoro-2,4-pentanedione], the “protection from acrolein-induced cell loss” value [1] is given as “moderately protective”, the “thiol protection against acrolein-induced thiol loss” value [2] is given as “did not increase” and the “effect on rate … (thiol) loss” value [2] is given as “some thiol protection”. For the same compound, the “change in acrolein IC50 for synaptosomal DA transport inhibition” value [3] was “relatively ineffective”, the “relative enolate concentration in solution” value [4] was 99% and the pKa ([4]; read-out: pKa) was 4.7. For the same compound, the “fold protection against H2O2-induced cytotoxicity” value [8] was 3 fold.

For `O=C1CCC(=O)C1` [CPD, 1,3-cyclopenanedione], the “change in acrolein IC50 for synaptosomal DA transport inhibition” value [3] is given as “relatively ineffective”, the “protection against H2O2-induced cell death” value [8] is given as “ineffective” and the “prevention of NAPQI-induced thiol loss” value [5] is given as “minimal thiol protection”.

With `CCN1C(=O)C=CC1=O` [NEM, N-ethylmaleimide] the “Log IC50” value [6] was 1.23.

In the case of `O=C1C=CC(=O)C=C1` [pBQ, p-benzoquinone], the “Log IC50” value [6] is reported as 1.06.

For `CC(=O)N=C1C=CC(=O)C=C1` [NAPQI, N-acetyl-p-benzoquinone imine], the “Log IC50” value [6] is listed as 0.92, the IC50 ([6]; read-out: IC50 for NAPQI-induced GSH loss, NAPQI alone, NAPQI 2-128 μM, no protectant) is listed as 9.1 µM and the “second order rate constant for reaction with cysteine sulfhydryl groups” value [9] is listed as 32000 M⁻¹ s⁻¹.

With `COc1cc(/C=C/C(=O)CC(=O)/C=C/c2ccc(O)c(OC)c2)ccc1O` [Curcumin, curcumin] the pKa ([4]; Table 1, read-out: pKa) was 7.8 and the “% Anion (pH = 7.4)” value [4] was 28.5%.

In the case of `CC(=O)C1CCCC1=O` (stereo not shown) [2-ACP, 2-acetylcyclopentanone], the “protection from acrolein-induced cell loss” value [1] is listed as “completely prevented”, the “protection of thiol loss induced by pBQ” value [10] is listed as “effective” and the “effect on rate … (thiol) loss” value [2] is listed as “completely prevented”. For the same compound, the “change in acrolein IC50 for synaptosomal DA transport inhibition” value [3] was “largest increases”, the “% Anion (pH = 7.4)” value [4] was 28.5% and the “fraction present as nucleophilic enolate/thiolate anion” value [4] was about 30%. The “protection against H2O2-induced cell death” value [8] was “completely prevented cell death”, the “thiol protection against NAPQI over concentration range” value ([5]; 2-ACP 25-200 μM, NAPQI 2-128 μM) was “provides thiol protection over a broad range of concentrations” and the “prevention of NAPQI-induced thiol loss” value [5] was “three-fold increase in the respective IC50 value”. The “changes in hepatic parameters, compound alone” value [7] was “neither NAC nor ACP alone caused significant changes”, the “protection from APAP-induced lethality (survival)” value (shortened to “protection … (survival)”) ([7]; i.p. 2.40 mmol/kg, 20 min after (+20) APAP) was “complete protection” and the “protection … (survival)” value ([7]; i.p. 2.40 mmol/kg, 20 min before oral APAP 500 mg/kg, 7 day period) was “completely prevented APAP lethality; also recorded: complete protection”. For the same compound, the “protection … (survival)” value ([7]; i.p. 2.40 mmol/kg, 60 min after (+60) APAP) was “ineffective”, the “biochemical indices of hepatocyte death (plasma ALT, AST, LDH) and oxidative stress (liver thiol loss, unsaturated aldehyde content)” value ([7]; i.p. pretreatment, oral APAP) was “prevented APAP-induced liver cell death” and the “histopathology: liver centrilobular necrosis” value ([7]; i.p. pretreatment, oral APAP) was “prevented the liver centrilobular necrosis”. The “dose-dependency of protection from APAP-induced lethality” value ([7]; i.p. pretreatment, 2-ACP 0.80-2.40 mmol/kg, NAC 4.80-7.20 mmol/kg) was “dose-dependent, although it occurred over a narrow dose-range”, the “oral hepatoprotection at increased dose” value ([7]; oral 4.80 mmol/kg) was “improved oral 2-ACP hepatoprotection” and the “protection … (survival)” value ([7]; oral gavage 2.40 mmol/kg, 20 min before oral APAP) was “modest improvements in APAP survival rate”. For the same compound, the “oral hepatoprotection with buffered gavage solution” value ([7]; oral, HEPES buffer pH 9.0) was “improved oral 2-ACP hepatoprotection”, the “plasma liver enzymes (ALT, AST) and LDH after I/R” value (from here on “plasma liver enzymes”) [11, 12] was “considerable reductions in the plasma appearance of liver enzymes” and the “plasma liver enzymes” value [11, 13] was “substantial hepatocyte dose-dependent protection”.

In the case of `CC(=O)CCC(C)=O` [HD, 2,5-hexanedione], the “protection from acrolein-induced cell loss” value [1] is given as “neither DEM nor HD was effective”, the “effect on rate … (thiol) loss” value [2] is given as “Neither diethyl malonate (DEM; a β-diester) nor 2,5-hexanedione (HD), a γ or 1,4-diketone, affected the rate of sulfhydryl loss” and the “change in acrolein IC50 for synaptosomal DA transport inhibition” value [3] is given as “neither DEM nor HD significantly affected the acrolein IC50”. The “protection against H2O2-induced cell death” value [8] was “ineffective”.

For `CC1(C)CC(=O)CC(=O)C1` [DMD, dimedone], the “effect on rate … (thiol) loss” value [2] is listed as “substantially slowed”, the “change in acrolein IC50 for synaptosomal DA transport inhibition” value [3] is listed as “more modest” and the pKa [4] is listed as 5.3. The “fraction present as nucleophilic enolate/thiolate anion” value [4] was 99% and the “prevention of NAPQI-induced thiol loss” value [5] was “ineffective”.

With `CC(C)(C)C1=CC(=O)C=CC1=O` [tBQ, tert-butylquinone] the “Log IC50” value [6] was 1.24.

For `CC(=O)CC(C)=O` [AcAc, acetylacetone], the “protection from acrolein-induced cell loss” value [1] is listed as “moderately protective”, the “thiol protection against acrolein-induced thiol loss” value [2] is listed as “virtually complete” and the “effect on rate … (thiol) loss” value [2] is listed as “substantially slowed”. The pKa [4] was 9.0 and the “prevention of NAPQI-induced thiol loss” value [5] was “minimal thiol protection”.

In the case of `CC(=O)N[C@@H](CS)C(=O)O` [NAC, N-acetylcysteine], the “protection from acrolein-induced cell loss” value [1] is listed as “completely prevented”, the “change in acrolein IC50 for synaptosomal DA transport inhibition” value [3] is listed as “more modest” and the pKa ([4]; Table 1, read-out: pKa) is listed as 9.5. For the same compound, the “% Anion (pH = 7.4)” value [4] was 0.8%, the pKa ([4]; read-out: pKa) was 9.6 and the “protection against H2O2-induced cell death” value [8] was “significantly less efficacious”. The “prevention of NAPQI-induced thiol loss” value [5] was “only minimal protection”, the “changes in hepatic parameters, compound alone” value [7] was “neither NAC nor ACP alone caused significant changes” and the “plasma liver enzymes” value [11, 12] was “did not prevent I/R liver injury”. For the same compound, the “plasma liver enzymes” value [11, 13] was “did not prevent I/R liver injury”.

With `N[C@@H](CCC(=O)N[C@@H](CS)C(=O)NCC(=O)O)C(=O)O` [GSH, glutathione] the pKa ([4]; Table 1, read-out: pKa) was 8.6 and the “% Anion (pH = 7.4)” value [4] was 5.9%.
